Assay results reported in patent US10221197B2, “Phosphatidylinositol 3-kinase inhibitors” (Gilead Sciences, Inc., priority 2014, dated 2019).
Where a name gives a salt, the structure may show the parent alone.

Legend:
Assay type in all cases: biochemical
PI3Kβ = PI3Kβ (Homo sapiens (Human), UniProt P42338); assay: TR-FRET enzymatic assay of PI3K isoforms (PI3Kβ); conditions: TR-FRET, 2×Km ATP, 2 μM PIP2, incubated for 30 minutes at 25° C.; read-out: β IC50
Experimental: (§1) The compounds of formula (I) were characterized for their enzymatic activity against the PI3K isoforms. Certain compounds of the present application, including certain compounds of formula (II) and (III) were also characterized for their enzymatic activity against PI3K isoforms. The activities were measured using a time-resolved fluorescence resonance energy transfer (TR-FRET) assay.

PI3Kδ = PI3Kδ (Homo sapiens (Human), UniProt O00329); assay: TR-FRET enzymatic assay of PI3K isoforms (PI3Kδ); conditions: 2×Km ATP, 2 μM PIP2, incubated for 30 minutes at 25° C., read-out: δ IC50
Experimental: as §1

PI3Kγ = PI3Kγ (Homo sapiens (Human), UniProt P48736); assay: TR-FRET enzymatic assay of PI3K isoforms (PI3Kγ); conditions: TR-FRET, 2×Km ATP, 2 μM PIP2, PI3Kγ at 2 nM, incubated for 30 minutes at 25° C.; read-out: γ IC50
Experimental: as §1

Sequence of PI3Kγ (P48736 whole entry, canonical isoform): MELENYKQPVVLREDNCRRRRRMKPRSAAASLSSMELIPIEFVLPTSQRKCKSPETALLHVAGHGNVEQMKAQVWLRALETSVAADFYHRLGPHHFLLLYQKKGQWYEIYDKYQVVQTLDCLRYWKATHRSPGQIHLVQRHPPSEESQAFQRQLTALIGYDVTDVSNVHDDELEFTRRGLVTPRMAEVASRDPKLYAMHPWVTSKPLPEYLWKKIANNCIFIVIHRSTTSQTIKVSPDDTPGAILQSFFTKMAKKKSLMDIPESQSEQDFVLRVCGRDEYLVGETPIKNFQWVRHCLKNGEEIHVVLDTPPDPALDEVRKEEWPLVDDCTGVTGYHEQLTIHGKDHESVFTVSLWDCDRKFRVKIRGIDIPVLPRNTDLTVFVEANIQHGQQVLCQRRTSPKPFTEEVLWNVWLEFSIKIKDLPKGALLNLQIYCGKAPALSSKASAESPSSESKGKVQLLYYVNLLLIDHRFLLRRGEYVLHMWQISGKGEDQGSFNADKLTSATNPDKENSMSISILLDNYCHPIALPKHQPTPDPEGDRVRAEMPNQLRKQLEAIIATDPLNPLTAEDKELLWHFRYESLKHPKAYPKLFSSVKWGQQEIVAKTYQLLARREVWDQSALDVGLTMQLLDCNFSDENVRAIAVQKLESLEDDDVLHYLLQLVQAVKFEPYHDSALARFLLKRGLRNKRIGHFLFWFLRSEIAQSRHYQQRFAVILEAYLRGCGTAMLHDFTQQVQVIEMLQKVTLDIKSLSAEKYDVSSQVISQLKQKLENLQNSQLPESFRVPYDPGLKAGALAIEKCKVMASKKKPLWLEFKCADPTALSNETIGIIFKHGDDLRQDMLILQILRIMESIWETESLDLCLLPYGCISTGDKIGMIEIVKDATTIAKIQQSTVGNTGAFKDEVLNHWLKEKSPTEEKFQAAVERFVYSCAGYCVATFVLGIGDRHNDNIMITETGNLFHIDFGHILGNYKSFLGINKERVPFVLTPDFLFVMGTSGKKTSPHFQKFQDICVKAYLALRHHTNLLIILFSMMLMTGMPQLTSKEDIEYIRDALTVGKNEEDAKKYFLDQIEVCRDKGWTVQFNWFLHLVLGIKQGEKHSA
Sequence of PI3Kγ (Q8WYR1 whole entry partner, canonical isoform): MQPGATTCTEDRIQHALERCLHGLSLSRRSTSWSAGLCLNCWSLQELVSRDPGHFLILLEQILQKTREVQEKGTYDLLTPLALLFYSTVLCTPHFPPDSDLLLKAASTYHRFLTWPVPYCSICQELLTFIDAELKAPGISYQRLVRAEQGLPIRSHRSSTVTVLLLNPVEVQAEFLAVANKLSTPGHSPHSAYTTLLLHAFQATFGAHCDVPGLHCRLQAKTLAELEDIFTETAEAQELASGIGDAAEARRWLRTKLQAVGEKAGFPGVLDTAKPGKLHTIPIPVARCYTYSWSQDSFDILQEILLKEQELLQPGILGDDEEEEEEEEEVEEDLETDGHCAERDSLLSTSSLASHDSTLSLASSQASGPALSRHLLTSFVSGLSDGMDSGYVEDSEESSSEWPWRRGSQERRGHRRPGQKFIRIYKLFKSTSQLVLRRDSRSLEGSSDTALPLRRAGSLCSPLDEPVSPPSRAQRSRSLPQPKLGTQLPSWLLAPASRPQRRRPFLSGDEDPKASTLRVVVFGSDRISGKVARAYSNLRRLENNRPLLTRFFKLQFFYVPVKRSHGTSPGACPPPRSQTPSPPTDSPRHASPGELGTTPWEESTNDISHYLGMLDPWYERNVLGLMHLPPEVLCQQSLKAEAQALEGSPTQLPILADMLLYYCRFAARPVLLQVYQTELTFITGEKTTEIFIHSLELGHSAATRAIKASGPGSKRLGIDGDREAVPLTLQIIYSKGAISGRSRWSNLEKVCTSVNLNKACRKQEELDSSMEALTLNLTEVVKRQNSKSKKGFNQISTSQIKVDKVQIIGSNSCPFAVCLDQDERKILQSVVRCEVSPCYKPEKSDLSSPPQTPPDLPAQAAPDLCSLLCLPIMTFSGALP
Sequence of PI3Kβ (P42338 whole entry, canonical isoform): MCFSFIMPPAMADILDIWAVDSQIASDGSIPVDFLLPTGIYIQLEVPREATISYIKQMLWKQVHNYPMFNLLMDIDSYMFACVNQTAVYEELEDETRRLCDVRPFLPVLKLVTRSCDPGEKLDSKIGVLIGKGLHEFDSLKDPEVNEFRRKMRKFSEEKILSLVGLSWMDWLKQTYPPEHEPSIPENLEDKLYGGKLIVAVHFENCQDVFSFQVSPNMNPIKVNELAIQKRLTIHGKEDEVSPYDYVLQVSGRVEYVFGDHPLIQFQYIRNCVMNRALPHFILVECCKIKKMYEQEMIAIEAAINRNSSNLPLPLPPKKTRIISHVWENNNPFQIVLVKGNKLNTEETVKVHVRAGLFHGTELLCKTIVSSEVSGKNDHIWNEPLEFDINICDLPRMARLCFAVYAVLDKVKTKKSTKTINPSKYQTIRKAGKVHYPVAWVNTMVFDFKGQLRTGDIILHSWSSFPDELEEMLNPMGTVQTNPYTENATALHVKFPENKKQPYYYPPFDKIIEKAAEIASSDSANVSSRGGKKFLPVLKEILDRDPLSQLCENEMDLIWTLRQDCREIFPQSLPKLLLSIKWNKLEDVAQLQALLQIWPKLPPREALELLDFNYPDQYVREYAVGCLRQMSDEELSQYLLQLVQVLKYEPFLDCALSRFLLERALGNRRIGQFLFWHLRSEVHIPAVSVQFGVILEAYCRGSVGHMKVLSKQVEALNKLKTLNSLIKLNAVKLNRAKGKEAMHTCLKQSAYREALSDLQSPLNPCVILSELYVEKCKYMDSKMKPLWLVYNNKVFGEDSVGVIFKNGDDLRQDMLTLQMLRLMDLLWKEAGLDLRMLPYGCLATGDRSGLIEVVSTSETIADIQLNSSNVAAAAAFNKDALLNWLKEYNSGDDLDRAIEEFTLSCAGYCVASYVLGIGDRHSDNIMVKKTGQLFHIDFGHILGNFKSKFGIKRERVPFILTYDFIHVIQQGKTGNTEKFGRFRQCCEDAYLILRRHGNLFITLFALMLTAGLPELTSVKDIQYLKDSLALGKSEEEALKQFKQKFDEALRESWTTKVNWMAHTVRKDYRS
Sequence of PI3Kβ (P27986 whole entry partner, canonical isoform): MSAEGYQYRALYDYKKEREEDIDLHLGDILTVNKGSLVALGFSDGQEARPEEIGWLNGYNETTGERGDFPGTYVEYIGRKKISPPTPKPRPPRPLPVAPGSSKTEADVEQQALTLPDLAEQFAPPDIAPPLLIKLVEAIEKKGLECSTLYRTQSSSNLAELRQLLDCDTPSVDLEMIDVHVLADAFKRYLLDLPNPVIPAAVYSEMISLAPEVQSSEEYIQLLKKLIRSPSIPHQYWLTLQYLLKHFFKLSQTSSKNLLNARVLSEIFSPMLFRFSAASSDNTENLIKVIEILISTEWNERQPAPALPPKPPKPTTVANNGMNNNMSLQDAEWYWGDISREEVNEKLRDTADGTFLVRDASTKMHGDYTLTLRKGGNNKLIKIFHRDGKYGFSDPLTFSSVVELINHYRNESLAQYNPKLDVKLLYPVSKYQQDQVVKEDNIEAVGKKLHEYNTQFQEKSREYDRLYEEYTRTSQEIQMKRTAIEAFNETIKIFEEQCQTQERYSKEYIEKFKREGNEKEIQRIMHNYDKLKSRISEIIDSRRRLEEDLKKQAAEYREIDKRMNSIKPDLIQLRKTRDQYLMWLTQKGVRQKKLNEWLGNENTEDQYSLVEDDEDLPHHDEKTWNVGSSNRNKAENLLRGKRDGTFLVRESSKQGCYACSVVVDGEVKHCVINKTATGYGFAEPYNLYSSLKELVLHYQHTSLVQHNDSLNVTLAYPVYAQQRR
Sequence of PI3Kδ (O00329 whole entry, canonical isoform): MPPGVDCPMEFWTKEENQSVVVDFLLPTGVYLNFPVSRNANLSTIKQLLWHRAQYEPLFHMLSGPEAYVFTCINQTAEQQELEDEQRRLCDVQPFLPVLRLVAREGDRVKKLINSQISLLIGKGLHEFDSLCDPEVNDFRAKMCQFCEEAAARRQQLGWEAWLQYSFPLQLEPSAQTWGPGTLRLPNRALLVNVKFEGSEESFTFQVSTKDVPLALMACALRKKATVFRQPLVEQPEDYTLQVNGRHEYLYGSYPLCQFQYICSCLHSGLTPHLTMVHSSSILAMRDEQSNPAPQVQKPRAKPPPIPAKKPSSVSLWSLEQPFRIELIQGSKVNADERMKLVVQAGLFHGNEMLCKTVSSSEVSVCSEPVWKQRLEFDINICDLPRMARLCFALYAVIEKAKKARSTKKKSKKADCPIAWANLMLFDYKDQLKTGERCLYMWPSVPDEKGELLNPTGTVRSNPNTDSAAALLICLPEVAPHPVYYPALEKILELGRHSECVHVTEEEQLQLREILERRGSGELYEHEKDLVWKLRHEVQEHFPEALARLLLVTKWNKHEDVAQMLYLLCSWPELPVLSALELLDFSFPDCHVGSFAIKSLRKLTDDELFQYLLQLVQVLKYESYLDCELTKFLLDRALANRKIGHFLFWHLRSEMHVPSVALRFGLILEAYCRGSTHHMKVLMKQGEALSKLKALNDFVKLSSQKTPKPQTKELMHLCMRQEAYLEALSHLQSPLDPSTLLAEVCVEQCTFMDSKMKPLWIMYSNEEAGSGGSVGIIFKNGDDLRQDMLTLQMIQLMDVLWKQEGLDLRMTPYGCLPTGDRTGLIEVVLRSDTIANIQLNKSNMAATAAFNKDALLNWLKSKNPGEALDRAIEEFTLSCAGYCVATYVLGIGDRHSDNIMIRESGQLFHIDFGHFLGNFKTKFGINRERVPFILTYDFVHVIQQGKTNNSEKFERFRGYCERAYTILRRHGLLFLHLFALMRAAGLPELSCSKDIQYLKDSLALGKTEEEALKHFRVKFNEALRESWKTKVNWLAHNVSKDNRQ
Sequence of PI3Kδ (P27986 whole entry partner, canonical isoform): as the sequence (P27986 whole entry partner, canonical isoform) above

| IC50 (PI3Kβ) [nM] | IC50 (PI3Kδ) [nM] | IC50 (PI3Kγ) [nM] | SMILES |
| --- | --- | --- | --- |
| 230 | 24 | > 10000 | CCNC(=O)Nc1cccc(-n2c([C@H](C)Nc3ncnc(N)c3C#N)nc3c(F)cccc3c2=O)c1 [Compound 49, (S)-1-(3-(2-(1-((6-amino-5-cyanopyrimidin-4-yl)amino)ethyl)-8-fluoro-4-oxoquinazolin-3(4H)-yl)phenyl)-3-ethylurea] |
| 84 | 22 | > 10000 | CCNC(=O)Nc1cccc(-n2c([C@H](C)Nc3ncnc(N)c3C#N)nc3c(F)ccc(F)c3c2=O)c1 [Compound 50, (S)-1-(3-(2-(1-((6-amino-5-cyanopyrimidin-4-yl)amino)ethyl)-5,8-difluoro-4-oxoquinazolin-3(4H)-yl)phenyl)-3-ethylurea] |
| 340 | 39 | > 10000 | CCNC(=O)Nc1cccc(-n2c([C@H](C)Nc3ncnc(N)c3C#N)nc3ccccc3c2=O)c1 [Compound 52, (S)-1-(3-(2-(1-((6-amino-5-cyanopyrimidin-4-yl)amino)ethyl)-4-oxoquinazolin-3(4H)-yl)phenyl)-3-ethylurea] |
| 550 | 75 | > 10000 | CCNC(=O)Nc1cccc(-n2c([C@H](C)Nc3ncnc(N)c3C#N)nc3ccc(F)cc3c2=O)c1 [Compound 53, (S)-1-(3-(2-(1-((6-amino-5-cyanopyrimidin-4-yl)amino)ethyl)-6-fluoro-4-oxoquinazolin-3(4H)-yl)phenyl)-3-ethylurea] |
| 2600 | 250 | > 10000 | CCNC(=O)Nc1cccc(-n2c([C@H](C)Nc3ncnc(N)c3C#N)nc3cc(F)ccc3c2=O)c1 [Compound 54, (S)-1-(3-(2-(1-((6-amino-5-cyanopyrimidin-4-yl)amino)ethyl)-7-fluoro-4-oxoquinazolin-3(4H)-yl)phenyl)-3-ethylurea] |
| 12 | 3 | 1800 | CCNC(=O)Nc1cccc(-n2c([C@H](C)Nc3ncnc(N)c3C#N)nc3cccc(C)c3c2=O)c1 [Compound 55, (S)-1-(3-(2-(1-((6-amino-5-cyanopyrimidin-4-yl)amino)ethyl)-5-methyl-4-oxoquinazolin-3(4H)-yl)phenyl)-3-ethylurea] |
| 6600 | 880 | > 10000 | CCNC(=O)Nc1cccc(-n2c([C@H](C)Nc3ncnc(N)c3C#N)nc3cccc(OC)c3c2=O)c1 [Compound 56, (S)-1-(3-(2-(1-((6-amino-5-cyanopyrimidin-4-yl)amino)ethyl)-5-methoxy-4-oxoquinazolin-3(4H)-yl)phenyl)-3-ethylurea] |
| 580 | 610 | > 10000 | CCNC(=O)Nc1cccc(-n2c([C@H](C)N(C)c3ncnc(N)c3C#N)nc3cccc(Cl)c3c2=O)c1 [Compound 57, (S)-1-(3-(2-(1-((6-amino-5-cyanopyrimidin-4-yl)(methyl)amino)ethyl)-5-chloro-4-oxoquinazolin-3(4H)-yl)phenyl)-3-ethylurea] |
| 7 | 4 | 3800 | CCNC(=O)Nc1cccc(-n2c([C@H](C)Nc3ncnc(N)c3C#N)nc3c(F)ccc(Cl)c3c2=O)c1 [Compound 62, (S)-1-(3-(2-(1-((6-amino-5-cyanopyrimidin-4-yl)amino)ethyl)-5-chloro-8-fluoro-4-oxoquinazolin-3(4H)-yl)phenyl)-3-ethylurea] |
| 7 | 8 | > 10000 | C[C@H](Nc1ncnc(N)c1C#N)c1nc2c(Cl)ccc(Cl)c2c(=O)n1-c1cccc(NC(=O)NCCCO)c1 [Compound 64, (S)-1-(3-(2-(1-((6-amino-5-cyanopyrimidin-4-yl)amino)ethyl)-5,8-dichloro-4-oxoquinazolin-3(4H)-yl)phenyl)-3-(3-hydroxypropyl)urea] |
| 220 | 82 | > 10000 | C[C@H](Nc1ncnc(N)c1C#N)c1nc2c(Cl)cccc2c(=O)n1-c1cccc(NC(=O)NCCCO)c1 [Compound 65, (S)-1-(3-(2-(1-((6-amino-5-cyanopyrimidin-4-yl)amino)ethyl)-8-chloro-4-oxoquinazolin-3(4H)-yl)phenyl)-3-(3-hydroxypropyl)urea] |
| 4 | 9 | 3700 | C[C@H](Nc1ncnc(N)c1C#N)c1nc2c(F)ccc(Cl)c2c(=O)n1-c1cccc(NC(=O)NCCCO)c1 [Compound 66, (S)-1-(3-(2-(1-((6-amino-5-cyanopyrimidin-4-yl)amino)ethyl)-5-chloro-8-fluoro-4-oxoquinazolin-3(4H)-yl)phenyl)-3-(3-hydroxypropyl)urea] |
| 38 | 98 | > 10000 | C[C@H](Nc1ncnc(N)c1C#N)c1nc2c(F)ccc(F)c2c(=O)n1-c1cccc(NC(=O)NCCCO)c1 [Compound 67, (S)-1-(3-(2-(1-((6-amino-5-cyanopyrimidin-4-yl)amino)ethyl)-5,8-difluoro-4-oxoquinazolin-3(4H)-yl)phenyl)-3-(3-hydroxypropyl)urea] |
| 220 | 130 | > 10000 | C[C@H](Nc1ncnc(N)c1C#N)c1nc2c(F)cccc2c(=O)n1-c1cccc(NC(=O)NCCCO)c1 [Compound 68, (S)-1-(3-(2-(1-((6-amino-5-cyanopyrimidin-4-yl)amino)ethyl)-8-fluoro-4-oxoquinazolin-3(4H)-yl)phenyl)-3-(3-hydroxypropyl)urea] |
| 12 | 2 | 1500 | CCNC(=O)Nc1cccc(-n2c([C@H](C)Oc3ncnc(N)c3C#N)nc3cccc(Cl)c3c2=O)c1 [Compound 70, (S)-1-(3-(2-(1-((6-amino-5-cyanopyrimidin-4-yl)oxy)ethyl)-5-chloro-4-oxoquinazolin-3(4H)-yl)phenyl)-3-ethylurea] |
| 4 | 5 | 1300 | CCNC(=O)Nc1cccc(-n2c([C@H](C)Nc3ncnc4scnc34)nc3cccc(Cl)c3c2=O)c1 [Compound 72, (S)-1-(3-(5-chloro-4-oxo-2-(1-(thiazolo[5,4-d]pyrimidin-7-ylamino)ethyl)quinazolin-3(4H)-yl)phenyl)-3-ethylurea] |
| 38 | 17 | 5600 | CCNC(=O)Nc1cccc(-n2c([C@@H]3C[C@H](F)CN3c3ncnc(N)c3C#N)nc3cccc(Cl)c3c2=O)c1 [Compound 73, 1-(3-(2-((2S,4S)-1-(6-amino-5-cyanopyrimidin-4-yl)-4-fluoropyrrolidin-2-yl)-5-chloro-4-oxoquinazolin-3(4H)-yl)phenyl)-3-ethylurea] |
| 10 | 9 | > 10000 | C[C@H](Nc1ncnc(N)c1C#N)c1nc2cccc(Cl)c2c(=O)n1-c1cccc(NC(=O)NC2(C(F)(F)F)CC2)c1 [Compound 75, (S)-1-(3-(2-(1-((6-amino-5-cyanopyrimidin-4-yl)amino)ethyl)-5-chloro-4-oxoquinazolin-3(4H)-yl)phenyl)-3-(1-(trifluoromethyl)cyclopropyl)urea] |
| 5 | 7 | 4400 | C[C@H](Nc1ncnc(N)c1C#N)c1nc2cccc(Cl)c2c(=O)n1-c1cccc(NC(=O)NCC(F)(F)F)c1 [Compound 76, (S)-1-(3-(2-(1-((6-amino-5-cyanopyrimidin-4-yl)amino)ethyl)-5-chloro-4-oxoquinazolin-3(4H)-yl)phenyl)-3-(2,2,2-trifluoroethyl)urea] |
| 420 | 27 | 9500 | CC(C)NC(=O)Nc1cc(-n2c([C@H](C)Nc3ncnc(N)c3C#N)nc3cccc(Cl)c3c2=O)ccc1F [Compound 77, (S)-1-(5-(2-(1-((6-amino-5-cyanopyrimidin-4-yl)amino)ethyl)-5-chloro-4-oxoquinazolin-3(4H)-yl)-2-fluorophenyl)-3-isopropylurea] |
| 16 | 32 | 4900 | CCNC(=O)Nc1cc(-n2c([C@H](C)Nc3ncnc(N)c3C#N)nc3cccc(Cl)c3c2=O)ccc1F [Compound 78, (S)-1-(5-(2-(1-((6-amino-5-cyanopyrimidin-4-yl)amino)ethyl)-5-chloro-4-oxoquinazolin-3(4H)-yl)-2-fluorophenyl)-3-ethylurea] |
| 71 | 2 | 680 | C[C@H](Nc1ncnc(N)c1C#N)c1nc2cccc(Cl)c2c(=O)n1-c1cccc(NC(=O)NS(=O)(=O)C2CCCC2)c1 [Compound 79, (S)—N-((3-(2-(1-((6-amino-5-cyanopyrimidin-4-yl)amino)ethyl)-5-chloro-4-oxoquinazolin-3(4H)-yl)phenyl)carbamoyl)cyclopentanesulfonamide] |
| 120 | 0.9 | 250 | C[C@H](Nc1ncnc2scnc12)c1nc2cccc(Cl)c2c(=O)n1-c1cccc(NC(=O)NS(=O)(=O)C2CCCC2)c1 [Compound 80, (S)—N-((3-(5-chloro-4-oxo-2-(1-(thiazolo[5,4-d]pyrimidin-7-ylamino)ethyl)quinazolin-3(4H)-yl)phenyl)carbamoyl)cyclopentanesulfonamide] |

| SMILES | IC50 (PI3Kβ) [nM] | IC50 (PI3Kδ) [nM] | IC50 (PI3Kγ) [nM] |
| --- | --- | --- | --- |
| CCNC(=O)Nc1cccc(-n2c([C@H](C)Nc3ncnc(N)c3C#N)nc3cccc(C#N)c3c2=O)c1 [Compound 69, (S)-1-(3-(2-(1-((6-amino-5-cyanopyrimidin-4-yl)amino)ethyl)-5-cyano-4-oxoquinazolin-3(4H)-yl)phenyl)-3-ethylurea 2,2,2-trifluoroacetic acid salt] | 110 | 8 | 5200 |
